Assay results from patent publication EP0652009A1, “Identification and use of protease inhibitors” (ELI LILLY AND COMPANY, priority 1993, dated 1995).
Non-standard residues stand in square brackets, D forms with d. Residues, ends and D or L forms follow the SMILES beside them. Sta = CC(C)C[C@H](N)[C@@H](O)CC(=O)O; N(iPr)Gly = CC(C)NCC(=O)O

Tests used:
βAP production = assay: Assay 4: βAP production inhibition (cellular assay, ELISA of conditioned media, normalised to MTT); assay type: cell-based, human; Chinese hamster; conditions: compound at 10 µg/mL; 293 751 SWE and CHO 751 SWE cells (table does not say which); βAP ELISA divided by MTT result, relative to drug-free control; mean and standard deviation of at least six replicate assays
Excerpt: The test system used to measure the βAP production inhibition activity is typically a cellular assay or an animal model. Preferably, the βAP production inhibition activity is obtained by direct measurement of βAP production in a cellular assay, as described in WO9410569, the full disclosure of which is incorporated herein by reference. This assay is exemplified in Assay 4, below.
Two cell lines (human kidney cell line 293 and Chinese hamster ovary cell line CHO) were stably transfected with the gene for APP-751 containing the double mutation Lys₆₅₁-Met₆₅₂ to Asn₆₅₁-Leu₆₅₂ (APP-751 numbering) commonly called the Swedish mutation using the method described in Citron et al., (1992) Nature 360:672-674. The transfected cell lines were designated as 293 751 SWE and CHO 751 SWE, and were plated in Corning 96 well plates at 2.5x10⁴ or 1x10⁴ cells per well respectively in Dulbecco's minimal essential media plus 10% fetal bovine serum. Following overnight incubation at 37°C in an incubator equilibrated with 10% carbon dioxide (CO₂), the media were removed and replaced with 200 µL per well of media containing an aspartyl protease inhibitor. After a two hour pretreatment period, the media were again removed and replaced with fresh media containing the aspartyl protease inhibitor and the cells were incubated for an additional two hours.
After treatment, plates were centrifuged in a Beckman GPR at 1200 rpm for five minutes at room temperature to pellet cellular debris from the conditioned media. From each well, 100µL of conditioned media were transferred into an ELISA plate precoated with antibody 266 against βAP-13-28 (Seubert et al., supra.) and stored at 4°C overnight. An ELISA assay employing labelled antibody 6C6 (against βAP-1-16) was run the next day to measure the amount of βAP produced.
Cytotoxic effects of the compounds were measured by a modification of the method of Hansen et al., (1989) J. Immun. Meth. 119:203-210. To the cells remaining in the tissue culture plate, was added 25 µL of a 3,(4,5-dimethylthiazol-2-yl)2,5-diphenyltetrazolium bromide (MTT) stock solution (5 mg/mL) to a final concentration of 1 mg/mL. Cells were incubated at 37°C for one hour, and cellular activity was stopped by the addition of an equal volume of MTT lysis buffer (20% w/v sodium dodecylsulfate in 50% DMF, pH 4.7). Complete extraction was achieved by overnight shaking at room temperature. The difference in the OD562nm and the OD650nm was measured in a Molecular Devices UVmax microplate reader as an indicator of the cellular viability.
The results of the βAP ELISA were fit to a standard curve and expressed as ng/mL βAP peptide. In order to normalize for cytotoxicity, these βAP results were divided by the MTT results and expressed as a percentage of the results from a drug-free control.
The compounds prepared above in Examples 9, 12, 13, 20-23, 23A, 24, 30, 41-43, 45, and 48 were assayed for βAP production inhibition activity in cells at 10 µg/mL using Assay 4. The results presented in Assay Table 4, below, are the mean and standard deviation of at least six replicate assays. Assay Table 4

Human brain cathepsin D = target: T1, Human brain cathepsin D (Homo sapiens, UniProt P07339); assay: Assay 1: cathepsin D inhibition activity (non-cellular assay, porcine renin tetradecapeptide substrate, RP-HPLC); assay type: biochemical; conditions: purified human brain cathepsin D, pH 4.5, 44 µM porcine renin tetradecapeptide, 37°C
T1 construct: Human brain cathepsin D was purified from frozen post-mortem cortex; from tissue; host or cells: human post-mortem brain cortex
T1 sequence (P07339 65-412): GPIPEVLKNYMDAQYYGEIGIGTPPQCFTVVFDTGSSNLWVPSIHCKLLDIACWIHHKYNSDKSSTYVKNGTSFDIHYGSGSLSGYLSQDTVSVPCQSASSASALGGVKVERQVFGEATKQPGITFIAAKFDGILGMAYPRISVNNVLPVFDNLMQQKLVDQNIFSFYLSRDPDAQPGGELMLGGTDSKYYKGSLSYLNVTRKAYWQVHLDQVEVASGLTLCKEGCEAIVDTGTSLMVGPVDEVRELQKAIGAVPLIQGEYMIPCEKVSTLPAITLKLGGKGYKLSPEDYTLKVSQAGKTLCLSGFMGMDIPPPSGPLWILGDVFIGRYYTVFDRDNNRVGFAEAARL
Description: An example of a non-cellular assay that may be used to determine in vitro aspartyl protease inhibitory activity reacts partially purified human brain cathepsin D with a substrate, e.g., porcine renin tetradecapeptide. The resultant reaction mixture is divided into portions and each portion is incubated for a different period of time. After the reaction is stopped, the turnover of substrate in each portion is determined using reverse-phase HPLC. Protease inhibition activity may be calculated based on the rates of substrate turnover. This assay is exemplified in Assay 1, below. Human brain cathepsin D was purified from frozen post-mortem cortex substantially in accordance with the method of Nixon and Morotta, (1984) J. Neurochem. 43:507-516. The cortex material was prepared and applied to a DEAE-Sepharose® column. The flow through fraction was dialyzed against 50mM Tris-HCl, pH 7.5, and applied to concanavalin A Sepharose® and eluted with 50mM Tris, pH 7.5, 0.5M methyl α-D-mannopyranoside. The eluted cathepsin D activity was dialyzed against 25mM Tris, pH 7.5, and stored at -40°C (Con A pool) until use. For each assay, 50 μL of the Con A pool was diluted to 270 μL in 200mM sodium citrate, pH 4.5, 150mM sodium chloride (NaCl), and incubated for 10 minutes at 4°C with 15 μL of compound stock diluted in dimethylsulfoxide (DMSO). The substrate, porcine renin tetradecapeptide ([…] [SEQ ID NO:3], Bachem Bioscience, Inc., Philadelphia, PA), was added to each reaction mixture to yield a final concentration of 44 μM in a total volume of 300 μL. The samples were incubated at 37°C for 0, 10, 20, or 30 minutes, and then boiled for 5 minutes to stop the reaction. The samples were centrifuged in a microcentrifuge for 10 minutes at 14,000 rpm at 4°C. After centrifugation, 200 μL of each reaction was injected onto […] column (Vydac, Hesperia, CA) with a Perkin Elmer ISS 100 autosampler and eluted with a gradient eluent of 0-50% CH3CN in 0.1% CF3CO2H at 2 mL/min. Peptide product peaks were monitored at 220nm with a Perkin Elmer LC 95 detector and integrated with Rainin Dynamax software in order to quantitate activity.

| IC50 (Human brain cathepsin D) [µM] | Structure (SMILES) | βAP Production Inhibition (βAP production) [%] | inhibition at 10 µg/mL (βAP production) [%] |
| --- | --- | --- | --- |
| – | Cc1ccc(C(=O)C2NCCc3ccccc32)cc1C(=O)N[C@@H](Cc1ccccc1)[C@H](O)CN1C[C@H]2CCCC[C@H]2C[C@H]1C(=O)NC(C)(C)C (relative stereo) [Example 30, [3S-(3R*,4aR*,8aR*,2'S*,3'R*)]-2-[2'-Hydroxy-3'-phenylmethyl-4'-aza-5'-oxo-5'-(3''-[1''',2''',3''',4'''-tetrahydroisoquinolin-1'''-ylcarbonyl]-6''-methyl)phenyl]pentyl-decahydroisoquinoline-3-N-t-butylcarboxamide] | 69.2 ± 2.2 | – |
| – | Cc1cccc2ccc(C(=O)N[C@@H](CC(N)=O)C(=O)N[C@@H](Cc3ccccc3)[C@H](O)Cc3ccccc3C(=O)NC(C)(C)C)nc12 [Example 9, [1S-(1R*,4R*,5S*)]-N-(1-(2-Amino-2-oxoethyl)-2-oxo-3-aza-4-phenylmethyl-5-hydroxy-6-(2-(1-t-butylamino-1-oxomethyl)phenyl)hexyl)-8-methylquinolin-2-yl carboxamide] | – | 44.4 ± 7.7 |
| – | CC(C)C(NC(=O)C(Cc1cccc2ccccc12)NC(=O)OC(C)(C)C)C(=O)NC(Cc1ccccc1)C(O)Cc1ccccc1C(=O)NC(C)(C)C (stereo not drawn) [Example 23, [2R-(2R*,3S*,6S*,9S*)]-N-t-Butyl-2-[2-hydroxy-3-phenylmethyl-4,7-diaza-5,8-dioxo-6-(1-methylethyl)-9-N(t-butoxycarbonyl)amino-10-naphth-1-yl]decyl benzamide] | – | 96.3 ± 2.8 |
| – | CC(C)C(NC(=O)C(Cc1cccc2ccccc12)NC(=O)OC(C)(C)C)C(=O)NC(Cc1ccccc1)C(O)Cc1ccccc1C(=O)NC(C)(C)C (stereo not drawn) [Example 24, [2R-(2R*,3S*,6S*,9R*)]-N-t-Butyl-2-[2-hydroxy-3-phenylmethyl-4,7-diaza-5,8-dioxo-6-(1-methylethyl)-9-N(t-butoxycarbonyl)amino-10-naphth-1-yl]decyl benzamide] | 92.7 ± 1.4 | – |
| 0.004 | CC(=O)NCC(=O)N[C@H](C(=O)N[C@H](C(=O)N[C@@H](CC(C)C)[C@@H](O)CC(=O)N[C@@H](C)C(=O)N[C@H](C(=O)O)[C@@H](C)O)C(C)C)C(C)C [Example 41, CH3C(O)-Gly-Val-Val-Sta-Ala-Thr-OH] (Ac-GVV[Sta]AT-OH) | -6.2 ± 6.2 | – |
| 0.008 | CC(C)C[C@H](NC(=O)[C@@H](NC(=O)[C@@H](NC(=O)CNC(C)C)C(C)C)C(C)C)[C@@H](O)CC(=O)N[C@@H](C)C(=O)N[C@H](C(=O)O)[C@@H](C)O [Example 42, (CH3)2CH-Gly-Val-Val-Sta-Ala-Thr-OH] (H-[N(iPr)Gly]VV[Sta]AT-OH) | 13.1 ± 7.5 | – |
| 0.053 | CC(C)C[C@H](NC(=O)[C@@H](NC(=O)[C@@H](NC(=O)CN)C(C)C)C(C)C)[C@@H](O)CC(=O)N[C@@H](C)C(=O)N[C@H](C(=O)O)[C@@H](C)O [Example 43, Gly-Val-Val-Sta-Ala-Thr-OH] (H-GVV[Sta]AT-OH) | 16.2 ± 8.5 | – |
| > 0.25 | CC(C)C[C@H](NC(=O)[C@@H](NC(=O)CN)C(C)C)[C@@H](O)CC(=O)N[C@@H](C)C(=O)N[C@H](C(=O)O)[C@@H](C)O [Example 45, Gly-Val-Sta-Ala-Thr-OH] (H-GV[Sta]AT-OH) | 3.3 ± 1.1 | – |
| > 0.25 | CC[C@H](C)[C@H](NC(=O)C[C@H](O)[C@H](CC(C)C)NC(=O)[C@@H](NC(=O)CNC(C)C)C(C)C)C(=O)N[C@@H](C)C(=O)N[C@H](C(=O)O)[C@@H](C)O [Example 48, (CH3)2CH-Gly-Val-Sta-Ile-Ala-Thr-OH] (H-[N(iPr)Gly]V[Sta]IAT-OH) | 1.6 ± 19.8 | – |
